# Experimental data taken from patent EP0506565A1, “Use of 4,9,11-trienic steroids in compositions for turkeys” (ROUSSEL-UCLAF, priority 1991, dated 1992).
# Columns and labels:
# [1] = Biological test: trenbolone acetate given orally in the feed, weight gain and feed conversion index; format: in vivo, dinde femelle; design: GPM = Gain de poids cumulé: unit not given here
# From the text: L'essai a été effectué sur des dindes femelles âgées de 10 semaines.
# Les animaux sont répartis en 2 groupes : • un groupe témoin de 37 animaux, • un groupe de 37 animaux recevant de l'acétate de trenbolone dans leur nourriture.
# Les dindes reçoivent une quantité rationnée de nourriture renfermant l'acétate de trenbolone puis sont nourries ad libitum.
# On calcule le poids moyen des dindes par pesée individuelle chaque semaine. On calcule le gain de poids moyen et l'indice de consommation c'est-à-dire (le poids total de nourriture que l'animal a reçu)/(gain de poids total) [formula]
# Les résultats sont résumés dans le tableau ci-dessus, ainsi que dans les courbes jointes en annexe. • Courbe 1 : évolution pondérale des dindes femelles de 9 à 19 semaines. • Courbe 2 : évolution de la différence entre les indices de consommation cumulés témoins-traités. • Courbe 3 : évolution de la différence entre les gains de poids moyens des animaux traités par rapport aux animaux témoins.
# [2] = Plasma residues of TBA in orally treated turkeys; format: in vivo, dinde; details: à 10, 12, 14, 16 et 18 semaines; oral administration
# [3] = Course of plasma transaminase levels in orally treated turkeys; format: in vivo, dinde; details: oral administration, compared with controls
# [4] = Observation of locomotor behaviour of treated turkeys; format: in vivo, dinde; details: oral administration
# [5] = administré par voie orale chez divers animaux notamment les bovins; cited from earlier work
# [6] = 11ème semaine, 0,7 mg/Jour/dinde per os
# [7] = 12ème semaine, 0,7 mg/Jour/dinde per os
# [8] = 13ème semaine, 0,7 mg/Jour/dinde per os
# [9] = 14ème semaine, 0,7 mg/Jour/dinde per os
# [10] = 15ème semaine, 0,7 mg/Jour/dinde per os
# [11] = 16ème semaine, 0,7 mg/Jour/dinde per os
# [12] = 17ème semaine, 1,4 mg /jour/dinde per os
# [13] = 18ème semaine, 1,4 mg /jour/dinde per os
# [14] = 19éme semaine, 1,4 mg /jour/dinde per os
compound,measurement,setting,value
CC(=O)O[C@H]1CC[C@H]2[C@@H]3CCC4=CC(=O)CCC4=C3C=C[C@]12C [acétate de trenbolone],% variation = % de l'augmentation de GPM des traités par rapport aux témoins,[1]; [6],12%
same,GPM = Gain de poids cumulé,[1]; [6],"1606,1"
same,I.C. = indice de consommation,[1]; [6],"2,05"
same,PM = poids moyen,[1]; [6],"4967,6 grammes"
same,% variation = % de l'augmentation de GPM des traités par rapport aux témoins,[1]; [7],18%
same,GPM = Gain de poids cumulé,[1]; [7],"2303,7"
same,I.C. = indice de consommation,[1]; [7],"2,05"
same,PM = poids moyen,[1]; [7],"5665,2 grammes"
same,% variation = % de l'augmentation de GPM des traités par rapport aux témoins,[1]; [8],12%
same,GPM = Gain de poids cumulé,[1]; [8],"2907,2"
same,I.C. = indice de consommation,[1]; [8],"2,54"
same,PM = poids moyen,[1]; [8],"6268,7 grammes"
same,% variation = % de l'augmentation de GPM des traités par rapport aux témoins,[1]; [9],10%
same,GPM = Gain de poids cumulé,[1]; [9],"3839,4"
same,I.C. = indice de consommation,[1]; [9],"2,66"
same,PM = poids moyen,[1]; [9],"7200,9 grammes"
same,% variation = % de l'augmentation de GPM des traités par rapport aux témoins,[1]; [10],7%
same,GPM = Gain de poids cumulé,[1]; [10],"4463,6"
same,I.C. = indice de consommation,[1]; [10],"2,66"
same,PM = poids moyen,[1]; [10],"7825,1 grammes"
same,% variation = % de l'augmentation de GPM des traités par rapport aux témoins,[1]; [11],8%
same,GPM = Gain de poids cumulé,[1]; [11],5258
same,I.C. = indice de consommation,[1]; [11],"3,1"
same,PM = poids moyen,[1]; [11],"8619,6 grammes"
same,% variation = % de l'augmentation de GPM des traités par rapport aux témoins,[1]; [12],9%
same,GPM = Gain de poids cumulé,[1]; [12],"6008,1"
same,I.C. = indice de consommation,[1]; [12],"3,33"
same,PM = poids moyen,[1]; [12],"9369,7 grammes"
same,% variation = % de l'augmentation de GPM des traités par rapport aux témoins,[1]; [13],11%
same,GPM = Gain de poids cumulé,[1]; [13],"6651,2"
same,I.C. = indice de consommation,[1]; [13],"3,45"
same,PM = poids moyen,[1]; [13],"10012,8 grammes"
same,% variation = % de l'augmentation de GPM des traités par rapport aux témoins,[1]; [14],11%
same,GPM = Gain de poids cumulé,[1]; [14],"7197,8"
same,I.C. = indice de consommation,[1]; [14],"3,59"
same,PM = poids moyen,[1]; [14],"10559,4 grammes"
same,résidus plasmatiques de TBA,[2],inférieurs à la limite de dosage
same,évolution du taux des transaminases plasmatiques (GOT et GPT),[3],n'est pas modifiée par rapport aux témoins
same,comportement locomoteur,[4],aucune anomalie
same,activité,[5],relativement faible
